“Also recorded” adds a separate entry of the source.

The test system of assay [1] is A2ECs treated with IL-17A. The assay can be described thus: A2ECs exposed to IL-17A in vitro. In kind it is cell-based, mouse. As to conditions: for IL-17A-induced p53 and PAI-1 expression, and apoptosis: A2ECs from WT mice, IL-17A 100 ng/ml. As for the experimental part: FIGS. 49A-49B show the role of IL-17A in PTS-induced p53, PAI-1 expression, and apoptosis in A2ECs. (A) IL-17A^−/− mice resist PTS-induced p53 expression and apoptosis in A2ECs. Mice were kept in ambient AIR or exposed to 20 weeks of PTS. A2ECs isolated from WT and IL-17A^−/− mice in AIR or exposed to PTS were analyzed for acetylated/total p53, Sirt1 and activated caspase-3 to assess apoptosis by Western blotting. (B) CSP inhibits IL-17A-induced p53 and PAI-1 expression and apoptosis in A2ECs in vitro. A2ECs isolated from WT mice were treated with PBS or IL-17A (100 ng/ml) in the presence or absence of CSP or control peptide, CP for 24 h in culture dishes. A2EC lysates were immunoblotted for p53, PAI-1, Cl./total caspase-3 and β-actin. WT mice exposed to IL-17A (FIG. 48D) and PTS (FIG. 46A) induce p53 acetylation and Cav1 expression, while inhibiting Sirt1 in A2ECs.
FIGS. 58A-58B show a 7-amino acid fragment of CSP, CSP7 Inhibits IL-17A-induced A2EC apoptosis. (A) Fragments of CSP were synthesized as shown. (B) A2ECs were treated with CSP or its fragments, or CP, 2 h after exposure of cells to IL-17A. A2EC lysates were immunoblotted for acetylated/total p53 and active/total caspase-3 24 h after IL-17A exposure. β-actin levels were evaluated to assess equal loading.
Increased p53 and apoptosis in A2ECs of mice exposed to PTS or IL-17A provided evidence that PTS acts by increasing IL-17A. To confirm that increased IL-17A contributes to the induction of p53 and PAI-1 expression, and apoptosis in A2ECs during PTS-induced lung injury, IL-17A-deficient mice were exposed to 20 weeks of PTS and control mice were kept in ambient air. A2ECs were tested for p53^AC, p53 and Sirt1 expression, and apoptosis. The responses were compared with changes in A2ECs isolated from WT mice exposed to 20 weeks of PTS or AIR. There was marked induction of p53^AC and p53 levels, and apoptosis with parallel suppression of Sirt1 expression in WT mice exposed to 20 weeks of PTS. […] To confirm mitigation of PTS induced lung injury by CSP or CSP7 involves suppression of IL-17A-induced p53, PAI-1 and apoptosis, A2ECs isolated from WT mice were next treated with IL-17A (100 ng/ml) with or without CSP, CSP7 or CP. Control cells were treated with vehicle (PBS) alone. The A2EC lysates were tested for p53 and p53-mediated downstream induction of PAI-1, and apoptosis. […] Further, induction of miR-34a increased p53 and apoptosis in A2ECs without exposure to tobacco smoke, while inhibition of miR-34a using miR-34a antisense (miR-34a-AS) reduced cigarette smoke induced p53 expression and apoptosis. Results of both in vitro and in vivo experiments support an intricate link between miR-34a, p53^AC, p53 and p53-mediated induction of PAI-1 expression, and A2EC apoptosis during PTS lung injury.

Another assay deals with A2ECs treated with CSE. Description: A2ECs exposed to cigarette smoke extract (CSE) in vitro. It is filed as cell-based. To be noted: primary A2ECs + CSE. As for the experimental part: A2ECs were treated with PBS, CSP or its fragment, CSP7 or control peptide (CP), 2 h after exposure of cells to CSE. A2EC lysates were immunoblotted for acetylated/total p53 and active/total caspase-3 24 h after CSE exposure. β-actin levels were evaluated to assess equal loading.
To further confirm CSP7 mimics CSP effect, primary A2ECs were treated with cigarette smoke extract (CSE) prepared in PBS in the presence of CSP or CSP7. The A2ECs treated with CSE and CP or PBS alone were used as controls. The A2EC lysates were tested for acetylated and total p53, apoptosis and Sirt1 expression. CSE induced total and acetylated p53 while inhibiting Sirt1 expression in A2ECs indicating inhibition of Sirt1-mediated deacetylation of p53 contributes to induction of acetylated and total p53 and A2EC apoptosis.

The subject of a further assay is A2Cs of IL-17A^−/− mice. Description: Tobacco smoke exposure of IL-17A-/- mice. In kind it is in vivo, mouse. As to conditions: 20 weeks TS; for IHC Trf1 or Trf2 antigen staining: IL-17A-deficient mice. The method, then: Mouse models and CSP7 treatment. All experiments involving mice were performed according to the approved protocols under the guidelines of Institutional Animal Care and Use Committee. Wild type (WT), and PAI-1^−/− and uPA^−/− mice of C57BL/6 background purchased from Jackson Laboratory (Bar Harbor, ME) were used for the experiments. IL-17A^−/− mice were obtained from University of Tokyo, Japan.
To test the effect of chronic TS exposure induced lung injury, these mice were exposed to passive TS from 40 research cigarettes over a 4 h period 5 days/week for 20 weeks (˜90 mg/m3 total solid particulates) using a mechanical smoking chamber (Teague Enterprises, Davis, CA) as described earlier. (Bhandary et al, 2015). Control mice were kept in ambient air. After sixteen weeks of daily passive TS exposure, mice with TS exposure injury were treated with CSP7 at a dosage of 1.5 mg/kg body weight daily 5 days/week for the next four weeks. These mice were continued with daily exposure of 4 h of TS during CSP7 treatment. At the end of the experiment (after 20 weeks of TS exposure), the mice were euthanized, and lungs were utilized for further analyses. To expand the local delivery options of CSP7 to directly treat the damaged lung by air-jet milling for dry powder inhalation (DPI). Mice exposed to TSE were treated with CSP7 using a rotating brush generator for 15 min daily for 7 days. Fourteen days later, BLM mice were subjected to daily inhalation of micronized CSP7 (0.05 mg/kg/d) DP through air-jet-milling for seven consecutive days using a rotating brush exposure system. The rotating brush exposure system gave a consistent minimal chamber concentration of 0.1 mg/L. In order to match dosing of DP inhalation, animal exposure times were adjusted to approximately 15 minutes and an estimated dose of 0.05 mg/kg/d or 1.00 microgram/lung was administered.

For a further assay, the system named is AECs from COPD lungs. Description: AECs from COPD lungs treated in vitro for 48 h. In kind it is cell-based, human.

In the case of “DGIWKASFTTFTVTKYWFYR (listed as Homo sapiens) [CSP, 20 residue caveolin-1 scaffolding domain peptide]”, in assay [1], the “IL-17A-induced p53 and PAI-1 expression, and apoptosis” value was “inhibited IL-17A-induced p53 and PAI-1 expression, and apoptosis”. In the assay on A2ECs treated with CSE, the CSE-induced apoptosis result is reported as “inhibited CSE-induced apoptosis”.

With “WGIDKAFFTTSTVTYKWFRY [CP, scrambled control peptide with the same amino acid composition as CSP, reference compound]”, in the assay on A2Cs of IL-17A^−/− mice (IL-17A-/- mice), the “telomere shortening in A2Cs” value was “minimal effect”. Moreover, the “IHC Trf1 or Trf2 antigen staining” value with A2Cs of IL-17A^−/− mice is “little change in Trf1 or Trf2 antigen staining”. Moreover, the “MUC5AC, HDAC6, FOXA3, CAV1 and FOXA2 mRNA (qPCR)” value in the assay with AECs from COPD lungs was “continued to exhibit elevated levels of MUC5AC, HDAC6, FOXA3, and CAV1 mRNA with low FOXA2 mRNA”.

For “FTTFTVT (listed as Homo sapiens) [CSP7, heptapeptide fragment of the caveolin-1 scaffolding domain peptide CSP]”, in the assay with A2Cs of IL-17A^−/− mice (IL-17A-/- mice), the baseline telomerase activity result is listed as “limited effects on baseline telomerase activity” and the “telomere shortening in A2Cs” value was “minimal effect”. Further, the “IHC Trf1 or Trf2 antigen staining” value in the assay on A2Cs of IL-17A^−/− mice is recorded as “little change in Trf1 or Trf2 antigen staining”. For the same substance, in assay [1] (A2ECs + IL-17A, CSP deletion fragments), the “p53 and caspase-3 activation” value was “inhibited p53 and caspase-3 activation”. Also, the “IL-17A-induced p53 and PAI-1 expression, and apoptosis” value in assay [1] is “inhibited IL-17A-induced p53 and PAI-1 expression, and apoptosis”. Further, in the assay on A2ECs treated with CSE, the CSE-induced apoptosis entry was “inhibited CSE-induced apoptosis”. For the same substance, in the assay with AECs from COPD lungs, the “CIP2A mRNA” value is “significant suppression of CIP2A mRNA”; the “MUC5AC, HDAC6, FOXA3, CAV1 and FOXA2 mRNA (qPCR)” value is given as “reversed by CSP7 treatment; also recorded: significantly suppressed”; the “co-localization of MUC5AC/HDAC6 and Ac-Tub/LC3 (immunofluorescence)” value is reported as “co-localization was reversed”; the “number of ciliated AECs and cilia length” value was “restored”. Also, the “acridine orange staining of acidic vesicles (late autophagic vacuoles)” value in the assay with AECs from COPD lungs (6 h) is “reversed by CSP7; also recorded: marked reduction in red fluorescence”. Moreover, in the assay on AECs from COPD lungs (48 h), the “Cav1 mRNA (qPCR)” value is “reversed”.

For the origin of these results see patent US20240082342A1, “PEPTIDE THERAPEUTICS FOR INCREASING LUNG CELL VIABILITY” (BOARD OF REGENTS, THE UNIVERSITY OF TEXAS SYSTEM, priority 2018, published 2024).
